ChEMBL document CHEMBL3639112, “Modulators of calcium release-activated calcium channel and methods for treatment of non-small cell lung cancer” (2015)

Molecular target: Calcium release-activated calcium channel protein 1 (Homo sapiens, UniProt Q96D31)
Assay: Inhibition Assay: Inhibition of CRAC channels was determined following thapsigargin (Sigma, Cat # T9033) induced endoplasmic calcium release in Jurkat cells. (see Yasurio Yonetoky et. al Bio. & Med. Chem. 14 (2006) 4750-4760). Cells were centrifuged and resuspended in equal volumes f Ca2+ and Mg2+ free Hanks buffer and Fluo-8 NW dye (ABD Bioquest, Inc., Sunnyvale, Calif.) loading solution at 2x10^5 cells/100 ul/well in 96-well black plate. Plate is incubated at 37 C./5% CO2 […] followed by further […] at room temperature. Test compounds (DMSO stocks diluted in Ca2+ and Mg2+ free Hanks buffer) at desired concentrations were added to the wells and […]. Thapsigargin (1 uM final concentration) was added to the wells and incubated for 15 min to inhibit the Sarco-endoplasmic reticulum Ca2+ ATPase pump thereby depleting endoplasmic calcium and raising cytosolic calcium concentrations. Store-operated calcium entry was initiated by adding extracellular Ca2+.
Assay type: cell-based

Sequence of Calcium release-activated calcium channel protein 1 (Q96D31 whole entry): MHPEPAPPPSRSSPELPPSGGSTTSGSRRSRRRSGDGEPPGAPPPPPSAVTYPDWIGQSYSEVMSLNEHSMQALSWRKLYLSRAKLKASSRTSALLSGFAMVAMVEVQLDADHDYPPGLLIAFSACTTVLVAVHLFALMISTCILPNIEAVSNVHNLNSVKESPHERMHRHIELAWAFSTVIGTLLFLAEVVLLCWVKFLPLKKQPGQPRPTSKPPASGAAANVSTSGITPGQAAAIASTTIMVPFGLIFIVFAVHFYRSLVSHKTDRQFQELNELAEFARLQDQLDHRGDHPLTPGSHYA

| Compound | IC50 |
| --- | --- |
| O=C(Cc1ccc2ncccc2c1)Nc1ccc(-n2nc(C3CC3)cc2C2CC2)cc1 | 147 nM |
| O=C(Nc1ccc(-n2nc(C(F)(F)F)cc2C2CC2)cc1)c1ccc2ncccc2c1 | 86.1 nM |
